Data: the NIST ThermoML archive (doi:10.1021/je700260f)
± gives the expanded uncertainty stated by the source.

Details: Liquid, Vibrating tube method

Compound `FC(C(F)(F)F)C(F)(F)F` [1,1,1,2,3,3,3-heptafluoropropane] has a mass density (333.15 K, 33156 kPa) of 1451.3 ± 1.7 kg/m3, a mass density (333.15 K, 33196 kPa) of 1451.6 ± 1.7 kg/m3 and a mass density (333.15 K, 33224 kPa) of 1451.7 ± 1.7 kg/m3. The mass density (333.15 K, 33268 kPa) was 1451.7 ± 1.7 kg/m3, the mass density (333.15 K, 33317 kPa) was 1451.9 ± 1.7 kg/m3 and the mass density (333.15 K, 33346 kPa) was 1452 ± 1.7 kg/m3. For the same compound, the mass density (333.15 K, 33391 kPa) was 1452.2 ± 1.7 kg/m3, the mass density (333.15 K, 33421 kPa) was 1452.4 ± 1.7 kg/m3 and the mass density (333.15 K, 33465 kPa) was 1452.5 ± 1.7 kg/m3. It also gave a mass density (333.15 K, 33498 kPa) of 1452.4 ± 1.7 kg/m3, a mass density (333.15 K, 33532 kPa) of 1452.7 ± 1.7 kg/m3 and a mass density (333.15 K, 33566 kPa) of 1452.8 ± 1.7 kg/m3. The mass density (333.15 K, 33615 kPa) was 1453 ± 1.7 kg/m3, the mass density (333.15 K, 33639 kPa) was 1453.3 ± 1.7 kg/m3 and the mass density (333.15 K, 33683 kPa) was 1453.3 ± 1.7 kg/m3. It also gave a mass density (333.15 K, 33713 kPa) of 1453.3 ± 1.7 kg/m3, a mass density (333.15 K, 33753 kPa) of 1453.7 ± 1.7 kg/m3 and a mass density (333.15 K, 34447 kPa) of 1456.1 ± 1.7 kg/m3. The mass density (333.15 K, 34493 kPa) was 1456.2 ± 1.7 kg/m3, the mass density (333.15 K, 34519 kPa) was 1456.4 ± 1.7 kg/m3 and the mass density (333.15 K, 34541 kPa) was 1456.4 ± 1.7 kg/m3. It also gave a mass density (333.15 K, 34553 kPa) of 1456.4 ± 1.7 kg/m3, a mass density (333.15 K, 34564 kPa) of 1456.6 ± 1.7 kg/m3 and a mass density (333.15 K, 34570 kPa) of 1456.7 ± 1.7 kg/m3. For the same compound, the mass density (333.16 K, 8979 kPa) was 1316.3 ± 1.5 kg/m3, the mass density (333.16 K, 9012 kPa) was 1316.5 ± 1.5 kg/m3 and the mass density (333.16 K, 9767 kPa) was 1323.1 ± 1.5 kg/m3. The mass density (333.16 K, 9793 kPa) was 1323.2 ± 1.5 kg/m3, the mass density (333.16 K, 9821 kPa) was 1323.4 ± 1.5 kg/m3 and the mass density (333.16 K, 9857 kPa) was 1323.7 ± 1.5 kg/m3. It also gave a mass density (333.16 K, 9885 kPa) of 1324 ± 1.5 kg/m3, a mass density (333.16 K, 9911 kPa) of 1324.3 ± 1.5 kg/m3 and a mass density (333.16 K, 9936 kPa) of 1324.5 ± 1.5 kg/m3. It also gave a mass density (333.16 K, 9961 kPa) of 1324.7 ± 1.5 kg/m3, a mass density (333.16 K, 9986 kPa) of 1324.9 ± 1.5 kg/m3 and a mass density (333.16 K, 10016 kPa) of 1325.2 ± 1.5 kg/m3. It also gave a mass density (333.16 K, 10042 kPa) of 1325.3 ± 1.5 kg/m3, a mass density (333.16 K, 10070 kPa) of 1325.4 ± 1.5 kg/m3 and a mass density (333.16 K, 10094 kPa) of 1325.8 ± 1.5 kg/m3. It also gave a mass density (333.16 K, 10119 kPa) of 1326.1 ± 1.5 kg/m3, a mass density (333.16 K, 10148 kPa) of 1326.3 ± 1.5 kg/m3 and a mass density (333.16 K, 10178 kPa) of 1326.6 ± 1.5 kg/m3. For the same compound, the mass density (333.16 K, 10203 kPa) was 1326.6 ± 1.5 kg/m3, the mass density (333.16 K, 10236 kPa) was 1326.9 ± 1.5 kg/m3 and the mass density (333.16 K, 10265 kPa) was 1327.2 ± 1.5 kg/m3. The mass density (333.16 K, 10287 kPa) was 1327.4 ± 1.5 kg/m3, the mass density (333.16 K, 10312 kPa) was 1327.6 ± 1.5 kg/m3 and the mass density (333.16 K, 10338 kPa) was 1327.9 ± 1.5 kg/m3. It also gave a mass density (333.16 K, 10367 kPa) of 1328.1 ± 1.5 kg/m3, a mass density (333.16 K, 10397 kPa) of 1328.3 ± 1.5 kg/m3 and a mass density (333.16 K, 10430 kPa) of 1328.5 ± 1.5 kg/m3.
